# Measured values reported in publication PMC5789847, “Bismuth antimicrobial drugs serve as broad-spectrum metallo-β-lactamase inhibitors” (Nature Communications, 2018).
# Legend:
# [1] = tested on: NDM-HK (NDM-1^+); assay: microbe, parasite or virus in culture; format: cell-based, E. coli; conditions: for MBC of MER in combination with compound at 32 µg mL^-1 / MIC of MER in combination with compound at 32 µg mL^-1 / FICI / MBC of Bi(III) compound/inhibitor alone / MIC of Bi(III) compound/inhibitor alone: NDM-HK; for FICI: MER + compound, 256 µg mL^-1 set as MIC of Bi(III), 128 for Bi(NAC)3
# Procedure: MIC values were determined by standard broth micro-dilution method (Clinical and Laboratory Standards Institute (CLSI) M100-S20, 2010)[64]. Briefly, bacterial cells were cultured in LB broth overnight at 37 °C at 250 rpm and the OD was measured at 600 nm (OD600). The bacterial density was adjusted to about 1 × 10^6 CFU mL^−1 and checked by CFU counting on agar plates afterwards. Tested antibiotics or Bi(III) compounds were added triplicately into individual wells of flat-bottomed 96-well plates and performed 2-fold serial dilution, followed by addition of prepared bacterial inocula. The plate was then incubated at 37 °C for overnight. […] The MIC was determined as the lowest concentration of a drug that could inhibit the growth of microorganism by both visual reading and OD reading at 600 nm using a microtiter plate reader.
# Resulting growth (or lack of growth) was examined after overnight culturing and the lowest concentration that inhibits 99.9% of the original culture was taken as MBC.
# Other procedures were kept strictly the same. […] Synergism was defined when FICI ≤ 0.5, indifference was defined when FICI > 0.5 and < 4, and antagonism was defined when FICI≥4[65]. […] All of the determinations were performed at least in triplicate on different days.
# [2] = tested on: NDM-HK; conditions: metal compound 10, 50, 200 µM with MER at ½MIC (8 μg mL^−1), 24 h
# Procedure: Metal salts used for the screening involved bismuth nitrate (Bi(III)), gallium nitrate (Ga(III)), sodium stibogluconate (Sb(V)), chromium chloride (Cr(III)), cobalt chloride (Co(II)), nickel chloride (Ni(II)), ruthenium chloride (Ru(II)), and copper sulfate (Cu(II)). Briefly, different concentrations (10, 50, and 200 μM) of metal compounds were added to LB medium containing 8 μg mL^−1 of MER in 96-well plates. About 2 × 10^6 CFU mL^−1 logarithmic cultures of NDM-HK were added to each well of the plates and co-incubated for overnight. The growth inhibition of bacteria was monitored by OD reading at 600 nm and serial dilution in LB agar plate. Wells with no antibiotics or metal compounds served as growth controls, and wells with no bacteria added served as background controls. Each test was performed in triplicate. The inhibition was calculated as [1−(ODsample−ODbackground)/(ODcontrol−ODbackground)] ×100%. CFU was counting by 10-fold serial dilution in PBS and 10 μL was spotted in LB agar plate.
SMILES,"MBC ([1]; Escherichia coli, read-out: MBC of Bi(III) compound/inhibitor alone) [µg/mL]","MIC ([1]; Escherichia coli, read-out: MIC of Bi(III) compound/inhibitor alone) [µg/mL]",MBC of MER in combination with compound at 32 µg mL^-1 [1] [µg/mL],MIC of MER in combination with compound at 32 µg mL^-1 [1] [µg/mL],FICI [1],MBC of Bi(III) compound/inhibitor alone [1] [µg/mL],MIC of Bi(III) compound/inhibitor alone [1],growth inhibition based on optical density (OD) reading [2] [%]
"C[C@H](CS)C(=O)N1CCC[C@@H]1C(=O)O [CPL, D-captopril]",> 256,> 256,16,16,2.000,,,
"O=C(O)CN(CCN(CC(=O)O)CC(=O)O)CC(=O)O [EDTA, ethylenediaminetetraacetate]",,,0.5,0.5,0.031,> 256,> 256 µg/mL,
"CC(=O)N[C@@H](CS)C(=O)O [NAC, N-acetyl-cysteine]",,,8,8,0.750,> 256,> 256 µg/mL,
"CNC(=C[N+](=O)[O-])NCCSCc1ccc(CN(C)C)o1.O=C([O-])CC(O)(CC(=O)[O-])C(=O)[O-].[Bi+3] [RBC, ranitidine bismuth citrate]",,,4,2,0.250,> 256,> 256 µg/mL,
O=[N+]([O-])[O-].O=[N+]([O-])[O-].O=[N+]([O-])[O-].[Ga+3] [gallium nitrate],,,,,,,greater than 256 µg mL^-1,> 90
